US20230241205A1, “SARS-COV-2 IMMU[…] AND USES THEREOF” (TScan Therapeutics, Inc., priority 2020, published 2023)

Tests used:
Assay type in all cases: cell-based, human
[1] = test system: memory CD8+ T cells of convalescent COVID-19 patients; target cells expressing only HLA-A*02:01; details: of 9 HLA-A*02:01 patients
OC43 and HKU1 = assay: T-Scan screen, reactivity to corresponding epitopes in OC43 and HKU1 ORFeomes; details: COVID-19 patient memory CD8+ T cells
[2] = test system: memory CD8+ T cells of convalescent COVID-19 patients; target cells expressing only HLA-A*03:01; details: share of screened convalescent patients whose memory CD8+ T cells recognised the epitope; allele A*03

| Substance | patients in whom epitope or region was identified / recognized [1] | reactivity to corresponding epitopes in OC43 and HKU1 (OC43 and HKU1) | further results |
| --- | --- | --- | --- |
| ORF1ab aa 3881-3900: 20-aa segment of SARS-CoV-2 ORF1ab recognized in the T-Scan screen | 7 of 9 |  |  |
| SPRWYFYYL |  | all four of the patients |  |
| KCYGVSPTKY |  |  | % of Pts (Screen) [2]: 100% |
| S aa 261-280: 20-aa segment of SARS-CoV-2 S protein recognized in the T-Scan screen | 7 of 9 |  |  |
| KLWAQCVQL |  | do not recognize them |  |
